Data published in US20200407674A1, “CELL HOLDING AND TRANSPORTING DEVICE” (Stem Cell & Device Laboratory, Inc., priority 2018, published 2020).

Test system: human iPS cell-derived cardiac myocytes
Assay: Extracellular potential of cultured cardiac myocytes measured with MEA probe using device 1700
Assay type: cell-based
Details: dofetilide 0.0003, 0.001, 0.003 μM vs DMSO alone; MEA probe (MED64 System); FIG. 23
Text: The method of using the device for retaining and transporting cells 1700 when measuring cell characteristics is described here by taking an example of measuring an extracellular potential generated by cell activity of cardiac myocytes that is formed in the device for retaining and transporting cells 1700. An MEA (Multi-Electrode Array) probe P is used for measuring the extracellular potential. The MEA probe P is a device for measuring the extracellular potential generated by cellular activity. […] The substrate PB has a thin plate shape, and the molten wall PW is formed on the substrate PB. The melted wall PW has a cylindrical shape with one end open, and stores a medium inside, forming a cell arrangement space PS for placing the cells to be tested. […] The extracellular potential of the cultured cardiac myocytes was measured using the device 1700 that is formed using polycarbonate and that has a base 1701 (diameter: 6 mm, thickness: 0.7 mm), a through hole 1703 (diameter: 1.5 mm), a cell culture holding part 105 made of an oriented fiber sheet with a pitch of 10 μm, a manipulating part 1707, and the air vent section 1711, and the MEA probe P (MED64 System, Alpha MED Scientific Inc.). […] The drug response of the cultured cardiac myocytes can be measured by means of the extracellular potential by changing the conditions of the drug to be administered to the cultured cardiac myocytes. […]

CN(CCOc1ccc(NS(C)(=O)=O)cc1)CCc1ccc(NS(C)(=O)=O)cc1 [dofetilide, Dofetilide]
time required from the first peak potential to the second peak potential: prolonged depending on the concentration
